{"source": "patent US20180136216A1", "about": "“Biomarkers for a Combination Therapy Comprising Lenvatinib and Everolimus” (EISAI R&D MANAGEMENT CO., LTD., priority 2015, published 2018)", "tested_on": "metastatic renal cell carcinoma (RCC)", "experiment": "Phase 2 study (NCT01136733) of lenvatinib, everolimus or the combination; baseline serum Ang2 versus OS and PFS", "type": "in vivo, human", "procedure": "Purpose: A Phase 2 study for lenvatinib was performed in patients with metastatic renal cell carcinoma (RCC) following a VEGF-targeted therapy. The importance of angiogenesis in RCC highlights the need to understand clinical mechanisms of escape from anti-angiogenic therapy, such as everolimus. This clinical biomarker analysis was conducted to identify predictive markers of clinical benefit in RCC patients upon the combination therapy with lenvatinib and everolimus compared to everolimus monotherapy.\nThe purpose of this analysis was to measure Ang2 level in blood samples, such as serum, obtained from patients in clinical trials at both pre- and post-treatment with lenvatinib, everolimus or the combination thereof, and to identify blood biomarkers which can be used to predict whether patients will need the combination therapy.\nMaterials and Methods: Patients having metastatic renal cell carcinoma after a prior VEGF-targeted therapy received lenvatinib mesylate (“lenvatinib”), everolimus, or the combination thereof until disease progression or development of unmanageable toxicities. Patients received lenvatinib at a dose of 24 mg (as lenvatinib free base; the same shall apply hereinafter) oral once daily, everolimus at a dose of 10 mg oral once daily, or lenvatinib at 18 mg and everolimus at 5 mg oral once daily. 153 patients were treated and evaluated for efficacy and molecular correlative analysis. This study was a part of a Phase 2 multicenter study of lenvatinib (NCT01136733). Pre- and post-treatment serum samples were collected for biomarker analysis. Serum samples were collected on Cycle 1 Day 1 (pre-treatment), Cycle 2 Day 15, and Day 1 of every cycle from Cycle 2, and at off-treatment. Each Cycle consisted of 4 weeks (28 days). Ang2 detection enzyme immunoassay kit (EIDIA Co., Ltd.) was used for the quantification of serum Ang2 level. The association between the concentration at Cycle 1 Day 1 (“baseline level”) of Ang2 and clinical outcomes, such as progression free survival (PFS) and overall survival (OS), was assessed. PFS is defined as the time from the date of randomization to the date of first documentation of disease progression or death, whichever occurs first. PFS was based on investigator review data using RECIST 1.1. OS is defined as the time from randomization until death from any cause. “Randomization” means randomization of a patient into a test group or a control group when therapy plan for a patient is determined.", "key": {"[1]": {"conditions": "low baseline Ang2 (≤3760 pg/ml)"}}}
{"molecule": "CO[C@H]1C[C@@H]2CC[C@@H](C)[C@@](O)(O2)C(=O)C(=O)N2CCCC[C@H]2C(=O)O[C@H]([C@H](C)C[C@@H]2CC[C@@H](OCCO)[C@H](OC)C2)CC(=O)[C@H](C)/C=C(\\C)[C@@H](O)[C@@H](OC)C(=O)[C@H](C)C[C@H](C)/C=C/C=C/C=C/1C", "note": "[everolimus, (1R,9S,12S,15R,16E,18R,19R,21R,23S,24E,26E,28E,30S,32S,35R)-1,18-dihydroxy-12-{(1R)-2-[(1S,3R,4R)-4-(2-hydroxyethoxy)-3-methoxycyclohexyl]-1-methylethyl}-19,30-dimethoxy-15,17,21,23,29,35-hexamethyl-11,36-dioxa-4-aza-tricyclo[30.3.1.0^4,9]hexatriaconta-16,24,26,28-tetraene-2,3,10,14,20-pentaone]", "values": [{"measurement": "median PFS", "setting": "high baseline Ang2 (>3760 pg/ml)", "result": 5.5, "unit": "months"}, {"measurement": "median OS", "setting": "high baseline Ang2 (>3760 pg/ml, 33rd percentile cut-off)", "result": 12.2, "unit": "months"}, {"measurement": "median OS", "setting": "higher baseline Ang2, 25th percentile cut-off (3565 pg/ml)", "result": 12.2, "unit": "months"}, {"measurement": "median OS", "setting": "higher baseline Ang2, 70th percentile cut-off (5650 pg/ml)", "result": 12.2, "unit": "months"}, {"measurement": "median OS", "setting": "[1]", "result": "not reached"}, {"measurement": "median PFS", "setting": "[1]", "result": 5.6, "unit": "months"}]}
